System: Beagle dogs
Test: Maximum tolerated dose study in Beagle dogs, escalated-dose oral administration
Assay type: in vivo
Set-up: HGB: unit not given here
Details: for A/G / ALB / ALP / ALT / AST / BASO / BUN / CHO / CRE / EOS / GLU / HCT / HGB / K+ / LYM / MCH / MCHC / MCV / MONO / NEU / Na+ / PLT / PRO / RBC / Reti / T-BIL / TG / WBC: ~24 h post dose
Description: The protocol and procedures involving the care and use of animals in this study was reviewed and approved by IACUC of QuBEST BIO prior to conduct (Approval no.: QBSIACUC-A18142). During the study, the care and use of animals will be conducted in accordance with all applicable guidelines of Animal Welfare Act. Non-naive one male and one female Beagle dogs (~16–24 months old, original supplier: ORIENTBIO Co., Ltd, Korea) were selected from the stock colony and assigned for the study. The route of administration was the oral (by gavage) route, which is the anticipated clinical route of exposure. Test article formulations were administered once via oral gavage. The day of 1st dosing was designated as Day 1. Each dose was administered via a syringe attached with 12-french feeding tube. A dose volume of 5 ml/kg was used and individual dose volumes were based on the most recent body weight. Each dose was followed by a distilled water of 5 ml. Each animal was observed twice daily (a.m. and p.m.) for mortality and moribundity; findings were recorded as they were observed. Cage side observations were made for each animal once daily; abnormal findings were recorded. […] Body weights were measured prior to each dosing. […] Prior to dosing and ~24 h post each dose, blood was collected as the same method and frequency with hematology analysis using no anticoagulant and then serum was separated by centrifugation and stored at freezer until analyze (AU 400, Olympus, Japan; […] 744 Na^+/K^+/[…] Analyzer, SIEMENS, Germany). In terminal procedures, all surviving animals were returned to the stock colony without necropsy. Toxicity studies were performed by QuBEST BIO Co., Ltd (Yongin, Korea).
The objective of this study was to determine the maximum tolerated dose (MTD) of SLC-D011 following dose escalation by oral gavage to Beagle dogs.
The study group was detailed in Text Table 1.
Text Table 1. Study Group
Dose Level Dose Conc. No. of Animals†
Group Treatment (mg/kg) (mg/mL)
†: Animals were re-used for each dose with at least 4-day wash-out period.
The following parameters were evaluated in this study: mortality, clinical signs, body weights and clinical pathology parameters (hematology and serum biochemistry).
Mortality and Clinical Observations
All animals survived until end of the study. Test article-related clinical observations were limited to oily soft stool in the 100 mg/kg/day group animals and vomitus (frothy) and soft sto ol in the 400 […]
Clinical Pathology Parameters (Hematology and Serum Chemistry) […]
the 100 and 400 mg/kg group animals on approximately 24 hours post each dose, compared to pre […]
Based on the results of this study, the maximum tolerated dose (MTD) of SLC-D011 was considered to […]
Test article formulations were administered once via oral gavage. The day of 1st dosing was designated […]
Each dose was administered via a syringe attached with 12-french feeding tube. A dose volume of 5 mL/kg was used and individual dose volumes were based on the most recent body weight. Each dose was followed by a distilled water of 5 mL. […]
Each animal was observed twice daily (a.m. and p.m.) for mortality and moribundity; findings were recorded as they were observed. Cage side observations were made for each animal once daily; abnormal findings were recorded. Detailed observations were made for each animal once prior to treatment; abnormal findings (ranked/graded, if appropriate) or an indication the animal appears […]
Body weights were measured prior to each dosing. […]
Prior to each dosing and approximately 24 hours post each dose, blood samples for hematology examination were collected from the via cephalic vein into tubes with K2EDTA anticoagulant and […]
Parameters Unit Measurement Method
ⓐ RBC (Red blood cell count) 106/μL Electric Impedance […]
ⓒ HGB (Hemoglobin conc.) g/dL Cyanmethemoglobin […]

CC1(C)Oc2cc3oc(=O)ccc3cc2C[C@@H]1OC/C=C/c1ccccc1 [SLC-D011]
Body weights (100 mg/kg/day group animals by Day 4): lower body weights were temporarily noted
Hematology and serum chemistry parameters (in words) (100 and 400 mg/kg, ~24 hours post each dose vs pre dose): no toxicologically significant changes
A/G (female F1, 100 mg/kg): 0.72
ALB (female F1, 100 mg/kg): 2.62 g/dL
ALP (female F1, 100 mg/kg): 106.7 U/L
ALT (female F1, 100 mg/kg): 34.3 U/L
AST (female F1, 100 mg/kg): 41.7 U/L
BASO (female F1, 100 mg/kg): 0.6%
BUN (female F1, 100 mg/kg): 17.7 mg/dL
CHO (female F1, 100 mg/kg): 189.4 mg/dL
CRE (female F1, 100 mg/kg): 0.82 mg/dL
EOS (female F1, 100 mg/kg): 1.2%
GLU (female F1, 100 mg/kg): 96.4 mg/dL
HCT (female F1, 100 mg/kg): 47.8%
HGB (female F1, 100 mg/kg): 15.6
K+ (female F1, 100 mg/kg): 4.5 mmol/L
LYM (female F1, 100 mg/kg): 39.9%
MCH (female F1, 100 mg/kg): 22.5 pg
MCHC (female F1, 100 mg/kg): 32.6 g/dL
MCV (female F1, 100 mg/kg): 68.9 fL
MONO (female F1, 100 mg/kg): 5.6%
NEU (female F1, 100 mg/kg): 52.3%
Na+ (female F1, 100 mg/kg): 141 mmol/L
PLT (female F1, 100 mg/kg): 357 K/uL
PRO (female F1, 100 mg/kg): 6.27 g/dL
RBC (female F1, 100 mg/kg): 6.93 M/uL
Reti (female F1, 100 mg/kg): 0.61%
T-BIL (female F1, 100 mg/kg): 0.18 mg/dL
TG (female F1, 100 mg/kg): 21.3 mg/dL
WBC (female F1, 100 mg/kg): 7.80 K/uL
A/G (female F1, 400 mg/kg): 0.78
ALB (female F1, 400 mg/kg): 2.53 g/dL
ALP (female F1, 400 mg/kg): 174.7 U/L
ALT (female F1, 400 mg/kg): 39.1 U/L
AST (female F1, 400 mg/kg): 34.5 U/L
BASO (female F1, 400 mg/kg): 0.8%
BUN (female F1, 400 mg/kg): 12.08 mg/dL
CHO (female F1, 400 mg/kg): 175.1 mg/dL
CRE (female F1, 400 mg/kg): 0.85 mg/dL
EOS (female F1, 400 mg/kg): 1.4%
GLU (female F1, 400 mg/kg): 104.39 mg/dL
HCT (female F1, 400 mg/kg): 50.8%
HGB (female F1, 400 mg/kg): 15.7
K+ (female F1, 400 mg/kg): 4.9 mmol/L
LYM (female F1, 400 mg/kg): 31.2%
MCH (female F1, 400 mg/kg): 22.2 pg
MCHC (female F1, 400 mg/kg): 30.9 g/dL
MCV (female F1, 400 mg/kg): 71.7 fL
MONO (female F1, 400 mg/kg): 6.5%
NEU (female F1, 400 mg/kg): 59.6%
Na+ (female F1, 400 mg/kg): 143 mmol/L
PLT (female F1, 400 mg/kg): 378 K/uL
PRO (female F1, 400 mg/kg): 5.76 g/dL
RBC (female F1, 400 mg/kg): 7.08 M/uL
Reti (female F1, 400 mg/kg): 0.95%
T-BIL (female F1, 400 mg/kg): 0.15 mg/dL
TG (female F1, 400 mg/kg): 29.3 mg/dL
WBC (female F1, 400 mg/kg): 10.99 K/uL
Mortality (female dog, 100 mg/kg): 0/1
Clinical Observations Day 1 (female dog, 100 mg/kg, about 7 hours post dose): Soft stool (Oily)
Mortality (female dog, 400 mg/kg): 0/1
Clinical Observations Day 1 (female dog, 400 mg/kg, about 6 hours post dose): Black soft stool
A/G (male M1, 100 mg/kg): 0.58
ALB (male M1, 100 mg/kg): 2.41 g/dL
ALP (male M1, 100 mg/kg): 83.4 U/L
ALT (male M1, 100 mg/kg): 43.1 U/L
AST (male M1, 100 mg/kg): 28 U/L
BASO (male M1, 100 mg/kg): 0.2%
BUN (male M1, 100 mg/kg): 16.83 mg/dL
CHO (male M1, 100 mg/kg): 161 mg/dL
CRE (male M1, 100 mg/kg): 0.7 mg/dL
EOS (male M1, 100 mg/kg): 4.3%
HCT (male M1, 100 mg/kg): 46.8%
HGB (male M1, 100 mg/kg): 15.4
K+ (male M1, 100 mg/kg): 4.8 mmol/L
LYM (male M1, 100 mg/kg): 32.4%
MCH (male M1, 100 mg/kg): 23.0 pg
MCHC (male M1, 100 mg/kg): 33.0 g/dL
MCV (male M1, 100 mg/kg): 69.9 fL
MONO (male M1, 100 mg/kg): 7.1%
NEU (male M1, 100 mg/kg): 55.7%
Na+ (male M1, 100 mg/kg): 144 mmol/L
PLT (male M1, 100 mg/kg): 354 K/uL
RBC (male M1, 100 mg/kg): 6.69 M/uL
Reti (male M1, 100 mg/kg): 0.15%
T-BIL (male M1, 100 mg/kg): 0.1 mg/dL
TG (male M1, 100 mg/kg): 28.9 mg/dL
WBC (male M1, 100 mg/kg): 8.83 K/uL
A/G (male M1, 400 mg/kg): 0.59
ALB (male M1, 400 mg/kg): 2.37 g/dL
ALP (male M1, 400 mg/kg): 94.3 U/L
ALT (male M1, 400 mg/kg): 74.9 U/L
AST (male M1, 400 mg/kg): 27.2 U/L
BASO (male M1, 400 mg/kg): 0.6%
BUN (male M1, 400 mg/kg): 16.17 mg/dL
CHO (male M1, 400 mg/kg): 142 mg/dL
CRE (male M1, 400 mg/kg): 0.79 mg/dL
EOS (male M1, 400 mg/kg): 4.4%
HCT (male M1, 400 mg/kg): 50.5%
HGB (male M1, 400 mg/kg): 15.2
K+ (male M1, 400 mg/kg): 5.1 mmol/L
LYM (male M1, 400 mg/kg): 25.1%
MCH (male M1, 400 mg/kg): 22.1 pg
MCHC (male M1, 400 mg/kg): 30.1 g/dL
MCV (male M1, 400 mg/kg): 73.2 fL
MONO (male M1, 400 mg/kg): 7.9%
NEU (male M1, 400 mg/kg): 61.7%
Na+ (male M1, 400 mg/kg): 146 mmol/L
PLT (male M1, 400 mg/kg): 347 K/uL
RBC (male M1, 400 mg/kg): 6.90 M/uL
Reti (male M1, 400 mg/kg): 0.34%
T-BIL (male M1, 400 mg/kg): 0.12 mg/dL
TG (male M1, 400 mg/kg): 34.4 mg/dL
WBC (male M1, 400 mg/kg): 9.43 K/uL
Mortality (male dog, 100 mg/kg): 0/1
Clinical Observations Day 1 (male dog, 100 mg/kg, about 7 hours post dose): Brown soft stool (Oily)
Mortality (male dog, 400 mg/kg): 0/1
Clinical Observations Day 1 (male dog, 400 mg/kg, about 1 hours post dose): Vomitius (Frothy)
Tolerability (single oral administration at 100 and 400 mg/kg): well tolerated

From article PMC7782499, “Progerinin, an optimized progerin-lamin A binding inhibitor, ameliorates premature senescence phenotypes of Hutchinson-Gilford progeria syndrome” (Communications Biology, 2021)
